According to US7189720B2 (H. Lundbeck A/S, priority 1999, dated 2007):

Assays:
human Y5 receptor [1] = biological target: T1, human Y5 receptor (Homo sapiens, UniProt Q15761); assay: Radioligand binding to membranes, cloned human Y5 receptor; conditions: Table 3; read-out: Ki (nM) hNPY-5
T1 construct: expressed in transfected cells; host or cells: mouse fibroblast LM(tk-) cells, e.g. L-hY5-7 (ATCC CRL-11995)
T1 sequence (Q15761 1-445): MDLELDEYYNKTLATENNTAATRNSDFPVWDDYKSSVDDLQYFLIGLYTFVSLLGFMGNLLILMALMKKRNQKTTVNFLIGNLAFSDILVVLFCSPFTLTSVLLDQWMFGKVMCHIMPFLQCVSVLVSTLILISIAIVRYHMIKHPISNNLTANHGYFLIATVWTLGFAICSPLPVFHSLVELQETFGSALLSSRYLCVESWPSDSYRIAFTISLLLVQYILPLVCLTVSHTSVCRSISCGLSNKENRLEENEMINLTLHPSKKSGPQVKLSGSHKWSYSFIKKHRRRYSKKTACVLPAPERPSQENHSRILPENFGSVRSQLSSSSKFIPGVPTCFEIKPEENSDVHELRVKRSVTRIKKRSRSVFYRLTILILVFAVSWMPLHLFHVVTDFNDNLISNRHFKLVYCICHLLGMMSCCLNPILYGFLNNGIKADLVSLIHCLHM
Experimental: (§1) Binding of the compounds of the present invention to human Y1, Y2, Y4, and Y5 receptors was evaluated using stably transfected 293 or LM(tk-) cells as described above.
(§2) Membranes were harvested from COS-7 cells 48 hours after transient transfection. Adherent cells were washed twice in ice-cold phosphate buffered saline (138 mM NaCl, 8.1 mM Na2HPO4, 2.5 mM KCl, 1.2 mM KH2PO4, 0.9 mM CaCl2, 0.5 mM MgCl2, pH 7.4) and lysed by sonication in ice-cold sonication buffer (20 mM Tris-HCl, 5 mM EDTA, pH 7.7). Large particles and debris were cleared by low speed centrifugation (200×g, 5 min, 4° C.). Membranes were collected from the supernatant fraction by centrifugation (32,000×g, 18 min, 4° C.), washed with ice-cold hypotonic buffer, and collected again by centrifugation (32,000×g, 18 min, 4° C.). The final membrane pellet was resuspended by sonication into a small volume of ice-cold binding buffer (˜1 ml for every 5 plates: 10 mM NaCl, 20 mM HEPES, 0.22 mM KH2PO4, 1.26 mM CaCl2, 0.81 mM MgSO4, pH 7.4). Protein concentration was measured by the Bradford method (Bradford, 1976) using Bio-Rad Reagent, with bovine serum albumin as a standard. Membranes were held on ice for up to one hour and used fresh, or flash-frozen and stored in liquid nitrogen.
(§3) Membranes were prepared similarly from 293, LM(tk-), and NIH-3T3 cells.
(§4) Membrane suspensions were diluted in binding buffer supplemented with 0.1% bovine serum albumin to yield an optimal membrane protein concentration so that ^125I-PYY (or alternative radioligand such as ^125I-NPY, ^125I-NYY3-36, or ^125I-[Leu^31Pro^34]PYY) bound by membranes in the assay was less than 10% of ^125I-PYY (or alternative radioligand) delivered to the sample (100,000 dpm/sample=0.08 nM for competition binding assays). ^125I-PYY (or alternative radioligand) and peptide competitors were also diluted to desired concentrations in supplemented binding buffer. Individual samples were then prepared in 96-well polypropylene microtiter plates by mixing ^125I-PYY (25 μL) (or alternative radioligand), competing peptides or supplemented binding buffer (25 μL), and finally, membrane suspensions (200 μL). Samples were incubated in a 30° C. water bath with constant shaking for 120 min. Incubations were terminated by filtration over Whatman GF/C filters (pre-coated with 1% polyethyleneimine and air-dried before use), followed by washing with 5 mL of ice-cold binding buffer. Filter-trapped membranes were impregnated with MeltiLex solid scintillant (Wallac, Turku, Finland) and counted for ^125I in a Wallac Beta-Plate Reader. Alternatively, incubations were carried out in GF/C filter plates (pre-coated with 1% polyethyleneimine and air-dried before use), followed by vacuum filtration and three washes of 300 μL of ice-cold binding buffer. 50 μL of UltimaGold (Packard) scintillant were added and counted for ^125I, in a Wallac MicroBeta Trilux. Non-specific binding was defined by 300 nM human NPY for all receptors except the Y4 subtypes; 100 nM human PP was used for the human Y4 and 100 nM rat PP for the rat Y4.

human Y1 receptor = biological target: T2, human Y1 receptor (Homo sapiens, UniProt P25929); assay: Radioligand binding to membranes, cloned human Y1 receptor; conditions: text b745; read-out: Ki (nM) NPY (Y1)
T2 construct: expressed in transfected cells; host or cells: human embryonic kidney 293 cells, e.g. 293-hY1-5 (ATCC CRL-12121)
T2 sequence (P25929 1-384): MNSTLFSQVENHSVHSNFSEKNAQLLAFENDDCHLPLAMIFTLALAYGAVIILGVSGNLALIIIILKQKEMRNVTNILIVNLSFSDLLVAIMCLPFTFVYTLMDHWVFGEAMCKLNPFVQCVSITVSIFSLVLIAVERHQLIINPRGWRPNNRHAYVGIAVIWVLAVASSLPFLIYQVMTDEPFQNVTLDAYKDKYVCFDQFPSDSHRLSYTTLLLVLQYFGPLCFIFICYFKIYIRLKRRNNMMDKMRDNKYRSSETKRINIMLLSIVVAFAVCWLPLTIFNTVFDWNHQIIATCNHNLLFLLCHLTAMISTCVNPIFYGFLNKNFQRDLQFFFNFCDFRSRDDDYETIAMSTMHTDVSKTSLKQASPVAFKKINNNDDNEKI
Experimental: as §1, §2, §3, §4

human Y4 receptor = biological target: T3, human Y4 receptor (Homo sapiens, UniProt P50391); assay: Radioligand binding to membranes, cloned human Y4 receptor; conditions: text b745; read-out: Ki (nM) NPY (Y4)
T3 construct: expressed in transfected cells; host or cells: mouse fibroblast LM(tk-) cells, e.g. L-hY4-3 (ATCC CRL-11779)
T3 sequence (P50391 whole entry): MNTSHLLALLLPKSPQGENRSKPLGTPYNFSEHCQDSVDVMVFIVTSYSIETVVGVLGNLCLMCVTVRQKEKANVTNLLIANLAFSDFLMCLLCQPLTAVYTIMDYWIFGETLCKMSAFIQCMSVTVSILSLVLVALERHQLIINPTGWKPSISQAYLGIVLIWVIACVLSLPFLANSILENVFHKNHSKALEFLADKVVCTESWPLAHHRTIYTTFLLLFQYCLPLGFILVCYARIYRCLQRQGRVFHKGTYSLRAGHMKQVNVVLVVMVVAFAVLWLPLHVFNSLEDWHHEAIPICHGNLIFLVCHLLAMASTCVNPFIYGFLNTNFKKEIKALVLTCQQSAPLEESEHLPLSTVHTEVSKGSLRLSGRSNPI
Experimental: as §1, §2, §3, §4

human Y5 receptor [2] = biological target: T1, human Y5 receptor; assay: Functional assay: radioimmunoassay of cAMP in stably transfected cells; type: cell-based; conditions: Functional Antagonism Data, Table 7
Experimental: LM(tk-) cells stably transfected with the human Y5 receptor were routinely converted from an adherent monolayer to a viable suspension. Adherent cells were harvested with trypsin at the point of confluence, resuspended in a minimal volume of complete DMEM for a cell count, and further diluted to a concentration of 10^6 cells/ml in suspension media (10% bovine calf serum, 10% 10× Medium 199 (Gibco), 9 mM NaHCO3, 25 mM glucose, 2 mM L-glutamine, 100 units/ml penicillin/100 μg/ml streptomycin, and 0.05% methyl cellulose). The cell suspension was maintained in a shaking incubator at 37° C., 5% CO2 for 24 hours. Membranes harvested from cells grown in this manner may be stored as large, uniform batches in liquid nitrogen. Alternatively, cells may be returned to adherent cell culture in complete DMEM by distribution into 96-well microtiter plates coated with poly-D-lysine (0.01 mg/ml) followed by incubation at 37° C., 5% CO2 for 24 hours.
Stably transfected cells were seeded into 96-well microtiter plates and cultured until confluent. […] Cells were washed in […] buffered saline, or HBS (150 mM NaCl, 20 mM HEPES, 1 mM CaCl2, 5 mM KCl, 1 mM MgCl2, and 10 mM glucose) supplemented with 0.1% bovine serum albumin plus 5 mM theophylline and pre-equilibrated in the same solution for 20 min at 37° C. in 5% CO2. Cells were then incubated 5 min with 10 μM forskolin and various concentrations of receptor-selective ligands. The assay was terminated by the removal of HBS and acidification of the cells with 100 mM HCl. Intracellular cAMP was extracted and quantified with a modified version of a magnetic bead-based radioimmunoassay (Advanced Magnetics, Cambridge, Mass.). The final antigen/antibody complex was separated from free ^125I-cAMP by vacuum filtration through a PVDF filter in a microtiter plate (Millipore, Bedford, Mass.). Filters were punched and counted for ^125I, in a Packard gamma counter.

human Y2 receptor = biological target: T4, human Y2 receptor (Homo sapiens, UniProt P49146); assay: Radioligand binding to membranes, cloned human Y2 receptor
T4 sequence (P49146 1-381): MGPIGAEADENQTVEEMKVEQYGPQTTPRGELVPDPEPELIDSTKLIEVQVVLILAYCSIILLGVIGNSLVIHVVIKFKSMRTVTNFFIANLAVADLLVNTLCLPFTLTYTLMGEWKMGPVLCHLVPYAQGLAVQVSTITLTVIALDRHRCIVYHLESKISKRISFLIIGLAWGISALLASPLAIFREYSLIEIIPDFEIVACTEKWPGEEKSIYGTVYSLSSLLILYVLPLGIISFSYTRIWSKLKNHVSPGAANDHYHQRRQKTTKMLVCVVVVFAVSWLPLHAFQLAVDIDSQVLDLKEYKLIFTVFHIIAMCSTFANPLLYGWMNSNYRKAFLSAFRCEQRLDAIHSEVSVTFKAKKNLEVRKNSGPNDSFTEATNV
Experimental: as §1, §2, §3, §4

Ki (human Y5 receptor [1]): 138 nM
Ki (human Y1 receptor): > 100000 nM
Ki (human Y4 receptor): > 100000 nM
Kb (human Y5 receptor [2]): 1 µM
Ki (human Y2 receptor): > 100 µM
Compound: CC(C)Nc1nc(Cl)nc(NCC2CCC(CNS(=O)(=O)c3cccc4ccccc34)CC2)n1 (centres unmarked) [Example 49, N1-{[4-({[4-chloro-6-(isopropylamino)-1,3,5-triazin-2-yl]amino}methyl)cyclohexyl]methyl}-1-naphthalenesulfonamide]
